Source: PMC10535004, “Investigation of Peptides for Molecular Recognition of C-Reactive Protein–Theoretical and Experimental Studies” (Analytical Chemistry, 2023)
Entries after “also recorded” stand apart in the source; their conditions may differ.

T1: C-reactive protein (CRP) (Homo sapiens, UniProt P02741)
T1 construct: purchased Biorbyt (UK)
T1 sequence (P02741 19-224): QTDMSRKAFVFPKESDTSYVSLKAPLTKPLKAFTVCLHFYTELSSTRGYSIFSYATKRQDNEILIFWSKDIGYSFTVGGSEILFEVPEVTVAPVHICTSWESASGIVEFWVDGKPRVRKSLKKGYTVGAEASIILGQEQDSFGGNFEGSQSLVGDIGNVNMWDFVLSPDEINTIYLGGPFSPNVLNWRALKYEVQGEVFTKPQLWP

T2: C-reactive protein (human, UniProt P02741 19-224)
T2 construct: C-reactive protein (CRP), cyclic pentamer of five identical, noncovalently connected subunits of 206 amino acids each (printed); PDB 3PVO was used only for docking; also called CRP
T2 sequence (looked up): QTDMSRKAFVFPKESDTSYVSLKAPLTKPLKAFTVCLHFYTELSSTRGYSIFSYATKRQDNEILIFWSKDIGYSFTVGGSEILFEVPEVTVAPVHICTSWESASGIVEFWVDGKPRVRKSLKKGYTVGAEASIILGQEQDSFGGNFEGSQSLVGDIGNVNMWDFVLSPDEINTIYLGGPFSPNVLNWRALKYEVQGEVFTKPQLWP


Assays:
C-reactive protein (CRP) = target: T1, C-reactive protein (CRP); experiment: PM-IRRAS of protein-peptide complex on gold; type: binding; settings: complex immobilized on gold; peptide 100 μg mL-1, CRP 50 μg mL-1 in PBS
Experimental: (§1) 2.2. PM-IRRS analysis (polarisation modulation infrared reflection absorption
(§2) Three types o f samples were prepared and analysed: (a) peptide solution in PBS (100 μg mL-1), (b)
(§3) CRP solution in PBS (50 μg mL-1), and (c) protein -peptide complex. The complex was prepared

[1] = PM-IRRAS of peptide layers on gold; type: physicochemical; settings: for secondary structure on gold (in words): amide I band, peptide 100 μg mL-1 in PBS
Experimental: as §1, §2, §3

[2] = TEM analysis of peptide fibers; type: physicochemical; settings: 1 mg mL-1 in PBS
Experimental: 2. Surface characterisation
Suspensions of selected phages (10^9 pfu mL-1) in PBS and corresponding peptides (1 mg mL-1) in PBS were adsorbed onto carbon-coated copper grids (Sigma) for 3 min, stained with 1.5% uracyl acetate. The samples were photographed using Tecani Spirit BioTWIN microscope at 120kV, and images were processed by iTEM program. […]

C-reactive protein [3] = target: T2, C-reactive protein; experiment: PM-IRRAS; peptides immobilised on gold plates; spectra of peptide, CRP and the protein-peptide complex compared; settings: both partners purified
C-reactive protein [4] = target: T2, C-reactive protein; experiment: differential pulse voltammetry (electrochemical); P3 peptide covalently immobilised on TESPSA-silanised ITO, blocked with 1% BSA; 20 uL protein in PBS pH 7.4 for 30 min at room temperature; 1 mM Fc(CH2OH)2 in PBS as redox probe; drop of peak current fitted with the Hill equation, Kd = KA^n; settings: both partners purified
C-reactive protein [5] = target: T2, C-reactive protein; experiment: ELISA; phage clones on CRP, phages detected by the enzymatic reaction of tagged anti-M13 antibodies, absorbance at 450 nm, compared with WT phage
[6] = immobilized on gold, assuming helical conformation

Row | Molecule | peptide-CRP complex by PM-IRRAS (in words) (C-reactive protein (CRP)) | secondary structure on gold (in words) [1] | fiber structure of peptide (in words) [2] | ELISA signal, fold over WT phage (C-reactive protein [5]) | also measured
1 | GGSDPEGMQGNY [P2] | the P2-CRP complex is formed, but the effect of the P2 on the CRP secondary structure is different compared to P9 | higher amount of disordered structures in the secondary structure | loose fibers, which are unordered and without forming a specific structure |  | orientation of helix axis (in words) [1, 6]: nearly parallel to the gold surface; amide I band position ([1]; peptide immobilized on gold): 1674 cm–1
2 | SWFSDWDLELHA [P9] | the secondary structure of the complex may be affected | presence of β-sheets; also recorded: contains β and α or disordered peptide chains | The fibers self-assemble into unique structures called twisted nanoribbons |  | angle between the helical axis and the surface [1, 6]: about 48 °
3 | GGSDPEGMQGNY (12-mer identified by phage display against CRP; Immobilised on gold plates for PM-IRRAS; method is in the Supporting Information; also called peptide P2; source: synthetic peptide) [P2 peptide] |  |  |  |  | binding result (C-reactive protein [3]): binds
4 | VHWDFRQWWQPS (12-mer identified by phage display against CRP; immobilised on gold plates for PM-IRRAS, whose method is in the Supporting Information; also called peptide P3; source: synthetic peptide) [P3 peptide] |  |  |  |  | Kd (C-reactive protein [4]): 35 ± 1.2 nM
5 | VHWDFRQWWQPS (other, peptide exposed on the M13 phage clone P3; the library is described in the Supporting Information; also called P3 phage; source: M13 bacteriophage clone from phage display; not shown: M13 bacteriophage (peptide exposed on the phage)) [P3 clone (M13 phage exposing the P3 peptide)] |  |  |  | 13 fold | 
6 | SWFSDWDLELHA (other, peptide exposed on the M13 phage clone P9; also called P9 phage; source: M13 bacteriophage clone from phage display; not shown: M13 bacteriophage (peptide exposed on the phage)) [P9 clone (M13 phage exposing the P9 peptide)] |  |  |  | 16 fold | 
